Data: patent US8017611B2, “Pyridine and pyrazine derivatives -083” (AstraZeneca AB, priority 2007, dated 2011)
Read-outs that look alike come from different tables or passages of the source.

Experiments:
[1] = target: T1, Axl expressed on NCI H1299 lung large cell carcinoma cells (Homo sapiens, UniProt P30530); experiment: Cellular phospho-Axl ELISA assay, Test (b)
T1 sequence (P30530 26-894): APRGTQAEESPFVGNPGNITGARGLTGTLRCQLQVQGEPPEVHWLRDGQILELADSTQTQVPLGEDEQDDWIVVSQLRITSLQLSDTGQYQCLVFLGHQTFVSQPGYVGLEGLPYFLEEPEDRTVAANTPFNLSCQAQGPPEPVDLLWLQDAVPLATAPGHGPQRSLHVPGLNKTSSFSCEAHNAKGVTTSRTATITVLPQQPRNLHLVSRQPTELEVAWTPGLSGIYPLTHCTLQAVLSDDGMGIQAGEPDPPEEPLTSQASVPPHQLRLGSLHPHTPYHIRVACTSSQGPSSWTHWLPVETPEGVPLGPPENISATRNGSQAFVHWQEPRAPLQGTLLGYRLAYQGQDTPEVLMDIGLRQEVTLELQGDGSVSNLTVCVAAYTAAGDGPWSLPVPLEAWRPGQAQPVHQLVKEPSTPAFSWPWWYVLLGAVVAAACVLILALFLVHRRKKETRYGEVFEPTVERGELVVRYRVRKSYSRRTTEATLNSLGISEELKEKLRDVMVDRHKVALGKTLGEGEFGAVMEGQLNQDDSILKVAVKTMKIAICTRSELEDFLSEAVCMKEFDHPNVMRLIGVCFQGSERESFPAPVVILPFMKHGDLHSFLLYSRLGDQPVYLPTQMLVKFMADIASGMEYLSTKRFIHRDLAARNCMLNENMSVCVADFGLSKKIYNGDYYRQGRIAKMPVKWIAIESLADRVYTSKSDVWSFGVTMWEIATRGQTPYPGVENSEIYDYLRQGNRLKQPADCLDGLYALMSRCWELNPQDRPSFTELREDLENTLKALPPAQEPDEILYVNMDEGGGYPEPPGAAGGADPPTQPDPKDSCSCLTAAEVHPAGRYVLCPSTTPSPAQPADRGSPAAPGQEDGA
Experimental: This assay uses a conventional ELISA method to determine the ability of test compounds to inhibit phosphorylation of tyrosine residues in Axl.
100 μl Aliquots were seeded into each of the wells of a clear 96 well tissue culture plate and the plates were incubated overnight at 37° C. with 5% CO2 to allow the cells to adhere to the wells.
Aliquots of each compound concentration were added to the cells in each well using the Echo 550 (Labcyte Inc., Sunnyvale, Calif., US). Control cells received DMSO only. The cells were incubated for 2 hours at 37° C. with 5% CO2.
The resultant tissue culture plates were incubated on ice for 30 minutes to ensure full lysis.
The wells were washed 3 times with 250 μl per well of PBS containing 0.05% v/v Tween (PBS/T). The wells were treated with 3% w/v BSA in PBS at ambient temperature for 2 hours and subsequently washed 3 times with 250 μl per well of PBS/T.
50 μl Aliquots of the NCI H1299 cell lysates were added to the ELISA plates.
100 μl Aliquots of substrate solution were added to each of the wells and fluorescence was read on a Tecan Ultra plate reader (Tecan UK Ltd., Reading, Berkshire, UK).

[2] = target: T2, recombinant Axl tyrosine kinase (Homo sapiens, UniProt P30530); experiment: In vitro Axl kinase assay (AlphaScreen), Test (a); assay type: biochemical; settings: for IC50: Test (a), read-out: IC50 versus Axl tyrosine kinase; for inhibition at 1 µM: read-out: % Axl tyrosine kinase inhibition at 1 μM concentration
T2 construct: encompassing amino acids 473 to 894 of Axl; GST (N); made in house; host or cells: SF126 insect cells
T2 sequence (P30530 473-894): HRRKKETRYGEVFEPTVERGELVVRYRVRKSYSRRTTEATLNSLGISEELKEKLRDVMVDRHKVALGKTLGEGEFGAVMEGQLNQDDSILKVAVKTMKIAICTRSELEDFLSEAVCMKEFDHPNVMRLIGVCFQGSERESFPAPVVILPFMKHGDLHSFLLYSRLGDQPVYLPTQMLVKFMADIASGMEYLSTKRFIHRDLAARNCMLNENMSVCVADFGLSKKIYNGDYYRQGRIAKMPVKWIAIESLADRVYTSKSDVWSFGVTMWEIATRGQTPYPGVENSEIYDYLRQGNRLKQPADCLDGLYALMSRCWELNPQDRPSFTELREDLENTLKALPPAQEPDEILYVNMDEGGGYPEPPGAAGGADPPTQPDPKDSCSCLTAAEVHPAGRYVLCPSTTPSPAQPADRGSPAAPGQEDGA

[3] = test compound at 1 μM, first value quoted

IC50 ([1]; read-out: IC50 versus cellular phospho-Axl, Test (b), NCI H1299 cells stimulated with GAS6) [nM]	IC50 [2] [nM]	% Axl tyrosine kinase inhibition at 1 μM concentration [2, 3] [%]	IC50 [1] [nM]	inhibition at 1 µM [2, 3] [%]	SMILES
~3	~0.3	100.0	–	–	COCc1nn(C2CCN(C)CC2)cc1-c1cnc(N)c(-c2nc3ccccc3o2)c1 [Example 41.26]
–	–	–	~101	99.9	Nc1ncc(-c2cnn(C3CCNCC3)c2)cc1-c1nc2ccccc2s1 [Example 14, 3-(1,3-Benzothiazol-2-yl)-5-[1-(4-piperidyl)pyrazol-4-yl]pyridin-2-amine]
–	~0.4	–	~16	100	Cc1nn(C2CCNCC2)cc1-c1cnc(N)c(-c2nc3ccccc3o2)c1 [Example 22, 3-(1,3-benzoxazol-2-yl)-5-[3-methyl-1-(4-piperidyl)pyrazol-4-yl]pyridin-2-amine]
